In this assay the test system is T cell clone HER500.23c21. Kind of assay: HLA-DR promiscuity: HERp270-284 presented by EBV-LcL lines homozygous for HLA-DRB1* alleles to HER500.23c21 (IFNγ ELISA). It is filed as cell-based, human. The procedure: FIG. 4. HERp270-284 is a promiscuous MHC Class II HER-2/Neu epitope. (A) EBV-LcL lines homozygous for various HLA-DR alleles were tested for their ability to present HERp270-284 to clone HER500.23c21. Antigen-specific IFNγ production by HER500.23c21 was above the upper detection limit of the IFNγ ELISA (4000 pg/mL) with all EBV-LcL lines. […] The assay was set up in 96 well round bottom plates in cRPMI+10% FBS with 2×10^5 EBV-LcL/well and 1×10^5 HER500.23c21 cells/well. Peptides were used at a final concentration of 1 μg/mL. The assay was incubated for 48 hours at 37° C. with 5% CO2. Supernatants were harvested, frozen at −20° C. and then analyzed for IFNγ by ELISA. Results are shown for one representative experiment. (B) HERp270-284 was titrated with each EBV LcL line to determine the sensitivity of HER500.23c21 to different alleles. The assay was set up as in (A) except HERp270-284 concentrations are: 10 ng/mL, 33 ng/mL, 66 ng/mL, 100 ng/mL and 250 ng/mL. […] Results are shown for one representative experiment.
Cytokine Production. To determine cytokine production in the antigen specific stimulation assays, after 48 hours, 200 μL of supernatant was pulled from cultures and tested for both IL-2 and IFNγ production. IL-2 production was measured using the IL-2 dependent line HT-2 (ATCC). HT-2 cells were grown in IMDM with 10% FBS and 100 uM NEAA, 1 mM Sodium Pyruvate, 2 mM L-glutamine, […], 50 U/mL Streptomycin, 20 mM HEPES and 20 uM 2-Mercaptoethanol (cIMDM+10% FBS) and fed twice a week with 20 ng/mL rIL-2. For the assay, 4 days after HT-2 cells were split, cells were washed with IMDM+10% FBS to remove all rIL-2, and cells were added to 96 well round bottom plates at 1×10^4 cells/well in cIMDM+10% FBS. Supernatants from antigen specific stimulation were added to wells and plates were incubated 24-30 hours at 37° C. The following day 1 μCi of ^3[H] TdR was added for the final 6 hours of the assay and plates were harvested to glass fiber filter mats and DNA incorporation of the radioisotope, or proliferative response, was determined by counts per minute using a liquid scintillation counter (PerkinElmer Life and Analytical Sciences, Inc. Boston, Mass.). IFNγ production was measured using anti-human IFNγ antibody pairs for ELISA (BD Pharmingen, San Diego, Calif.). Briefly, Immulon 4 plates (Thermo Labsystems/VWR, Brisbane, Calif.) were coated overnight with purified anti-human IFNγ antibody (NIB42) at 3 μg/mL. The next day coating antibody was discarded and 4% Bovine Serum Albumin (BSA) (Sigma, St. Louis, Mo.) in PBS (Invitrogen) was added to wells and plates were incubated for 2 hours at 37° C. Plates were washed with PBS+0.05% Tween 20 and 100 μL of supernatant samples from the antigen specific stimulation was added to wells and incubated at room temperature for 1.25-2 hours. Plates were washed and biotinylated anti-human IFNγ antibody (4S.B3) was diluted in 1% BSA in PBS (1 μg/mL) and added to plates for 1 hour at room temperature. After washing plates, Strep-Avidin HRP (BD Pharmingen) was diluted 1:1000 in PBST and added to wells for 30 minutes at room temperature. Finally, plates were washed and Sigma® Fast OPD was added for 15 minutes in the dark. 2M HCl was added to stop the reaction and plates were read for absorbance at 492 nm on a spectrophotometer.
HLA-DR Restriction and Promiscuity. To determine HLA-DR restriction of the T cell epitope HERp270-284, anti-HLA-DR mAb L243, HLA-DQ mAb 1a3 or HLA-DP mAb B7/21 (20-1.25 μg/mL) were cultured with T cell clone HER.23c21, peptide HERp270-284 and autologous EBV-LcL in cRPMI+10% FBS media. Supernatants were harvested after 48 hours and tested for IL-2 and IFNγ production. HERp270-284 was also tested for HLA-DR promiscuity using EBV-LcL lines purchased from the European Collection of Cell Cultures originating from the 12th International Histocompatibility Workshop (IHW) held in Strasbourg, France. […]
For orientation: ELISA stands for enzyme-linked immunosorbent assay.

The values that follow come from patent publication US8263757B2, “Promiscuous HER-2/Neu CD4 T cell epitopes” (Dendreon Corporation, priority 2006, dated 2012).

Take “ALVTYNTDTFESMPN (HER-2/Neu peptide 270-284, HER500 peptide #63, HERp270-284, HER-2/Neu epitope 270-284, residues 3-17 of SEQ ID NO1) [Peptide 63]”: the “T cell response induced, regardless of the EBV-LCL line used” value (1 ug/ml peptide) is given as “maximal T cell response”. Besides, for the setting “all HERp270-284 concentrations above 250 ng/mL, each EBV LcL line”, the “IFNγ production by HER500.23c21 (ELISA), peptide titration” value is > 4000 pg/mL. Moreover, the “lowest peptide concentration able to stimulate Her500.23c21” value (allele DRB1*0401) turned out to be 10 ng/mL. Further, the “peptide concentration below which allele was unable to stimulate Her500.23c21” value (allele DRB1*1103) is ≥ 250 ng/mL. Further, the “number of HLA-DRB1* alleles for which the epitope is promiscuous (presented to HER500.23c21)” value (panel of 25 EBV LcL lines homozygous for different HLA-DRB1* alleles, 13 DR serological families) is reported as “at least 25”. For the setting “peptide 1 μg/mL, all EBV-LcL lines, 48 hours, upper detection limit 4000 pg/mL”, the “Antigen-specific IFNγ production by HER500.23c21 (ELISA)” value is > 4000 pg/mL.
